The values below come from patent publication US11173152B1, “Glutathione-coated nanoparticles for delivery of MKT-077 across the blood-brain barrier” (UNIVERSITY OF SOUTH FLORIDA, priority 2015, dated 2021).

For series [1] the following is noted: human subjects; cited from earlier work.
For series [2] the following is noted: dog, in vivo; cited from earlier work.
For series [3] the following is noted: rat, in vivo; cited from earlier work.
In series [4] the test system is TRANSWELL in vitro BBB model, co-culture of RBE4 (rat brain endothelial) cells with C6 (rat astrocytoma) cells. As to the kind of experiment: In vitro BBB permeation model. The format is in vitro ADME. As to conditions: end of the 48-hour study period, 10 μM equivalent, n=4. On the procedure: A […] in vitro BBB model was established to study the BBB permeation of MKT NPs and MKT Glu-NPs compared to drug solution according to a method previously described by the current inventors in [18]. […] permeable inserts were treated with 0.1% rat tail collagen I on the apical and basolateral sides. After 24 hours, C6 (rat astrocytoma) cells were seeded onto the basolateral side of the permeable insert (5×10^4 cells). After 48 hours, RBE4 (rat brain endothelial) cells were seeded onto the apical side of the permeable (5×10^4 cells). Cells were bathed in 1:1 mixture of Ham's F10:MEM media supplemented with 10% FBS with 1.5 mL in the basolateral chamber and 0.5 mL in the apical chamber, and were allowed to incubate (37° C. and 5% CO2) for 24 hours until confluence was established.
After 24 hours, media was replaced with a 1:1 mixture of Ham's F10:MEM media supplemented with 1% FBS (experimental media), and cells were treated with 10 μM equivalent treatments of MKT aqueous drug solution, MKT NPs, and MKT Glu-NPs. 1 mL media samples were aliquoted from the basolateral chamber at predetermined intervals over a 48-hour period to investigate the trans-BBB permeation of the treatments. Aliquots were read by UV spectroscopy (at wavelength of 492 nm (λmax) and compared to UV absorbance of standard dilutions of MKT drug in experimental media (r^2=0.9990).

The conditions of series [5]: blockage by the BBB; cited from earlier work.
Series [6] deals with human tau in HeLa cells stably expressing human tau. As to the kind of experiment: Effect on tau level in a cellular AD model (Western blot). In kind it is cell-based. As to conditions: 3 μM, 24 hours, GAPDH normalization. On the procedure: AD model: HeLa cells stably expressing human tau were maintained in OPTIMEM media as described earlier. Treatment with nanoparticles or control were performed for 24 hours and samples analyzed by western blotting, as described earlier.
In order to determine whether the newly formulated MKT-NPs are active, a cellular AD HeLa cell model that stably expresses human tau was used. Cells were treated with 3 μM of MKT uncoated NPs or MKT Glu-NPS or drug in solution or various controls for 24 hours.

Series [7] in a line: In vitro drug release (dialysis membrane, PBS pH 7.4). The format is physicochemical. As to conditions: within the initial 4 hours; PBS pH 7.4, 37° C. On the procedure: The drug release profile of MKT from MKT NPs and MKT Glu-NPs was investigated using a method previously described by the current inventors in [14]. 0.05 mg equivalent of MKT aqueous solution, MKT NPs, and MKT Glu-NPs were placed in dialysis membrane tubing ([…]) and placed in 20 mL of release medium comprised of PBS (pH 7.4) stirring at 100 rpm and 37° C. 1 mL aliquots were removed at predetermined intervals over 7 days and analyzed by UV spectroscopy at wavelength of 492 nm (λmax) and compared to UV absorbance of standard aqueous dilutions of MKT drug (r^2=0.9943).

Read-outs that look alike come from different tables or passages of the source.

On to `CCn1c(=O)/c(=C2\Sc3ccccc3N2C)s/c1=C\c1cccc[n+]1CC.[Cl-]` [MKT-077], for which the renal toxicity result in series [1], in series [2] and in series [3] was “irreversible renal toxicity” throughout. In addition, the “drug permeated through the BBB model” value in series [4] came to 20%. Besides, in series [5], the brain permeation result is “limited-to-no brain permeation”. For the same compound, the “reduction in tau levels” value in series [6] was “greater and comparable reduction in tau levels”. Further, the drug released entry in series [7] was “Approximately 100%”.
